Columns and labels:
[1] = system: Jurkat T cells and human PBLs; assay: IL-2 mRNA expression in activated T cells (real-time PCR); type: cell-based
Method: (§1) Jurkat T cells (5×10^5) or human PBLs (1×10^6) were stimulated with anti-CD3 (OKT3, 10 μg/ml)/CD28 (2 μg/ml) or PMA (100 nM)/A23187 (1 μM). For anti-CD3/CD28 stimulation, cells were placed on a culture dish coated with anti-CD3 antibody, and were then treated with anti-CD28 (2 μg/ml) antibody. For superantigen stimulation, T cells were incubated with SEE (1 μg/ml)-pulsed Raji B cells. For pre- or post-treatment experiments, various concentrations of 4H3MC or HCA were added 30 minutes or 60 minutes before stimulation.
Total RNA was isolated from Jurkat T cells using TRIZOL reagent (JBI, Korea). Reverse transcription of the RNA was performed using RT Pre-Mix (Intron, Korea). The primers and PCR conditions were as follows: […]
The amplification profile was composed of denaturation at 94° C. for 30 seconds, annealing at 60° C. for 20 seconds, and extension at 72° C. for 40 seconds. 30 cycles were preceded by denaturation at […] for 7 minutes. In some experiments, the expression levels of IL-2 mRNA were evaluated by real-time RT-PCR. Total RNA was isolated and cDNA was synthesized as described above. PCR amplification was performed in Step One Real-time PCR system (Applied Biosystems, Foster city, CA) for continuous fluorescence detection system using SYBR (Takara, Japan). Each PCR reaction was performed under the following conditions: 94° C. for 30 sec, 60° C. for 30 sec and 72° C. for 30 sec, plate read (detection of fluorescent product) for cycles, followed by extension at 72° C. for 7 min. Melting curve analysis was done to characterize the double-stranded DNA product. The levels of IL-2 mRNA normalized for GAPDH were expressed as fold changes relative to that of untreated controls. All experiments were performed at least three times.

AP-1, NF-κB and NFAT = AP-1, NF-κB and NFAT luciferase activity assays; type: cell-based, human; conditions: transfected Jurkat T cells, 4H3MC 10 μM pretreatment 1 hour, PMA/A23187 16 hours
Method: Jurkat T cells (1.5×10^6) were transfected with 100 μl of Amaxa's Nucleofector solution (Amaxa, Germany) containing 3 μg of pGL3-AP-1, pGL3-NF-κB or pGL3-NFAT Luc plasmids, and then the cells were transferred to complete medium and cultured at 37° C. After 48 hours of transfection, the transfected cells were pretreated with 4H3MC (10 μM) for 1 hour, and then stimulated with PMA/A23187 for 16 hours. After […], the cells were harvested and lysed with a lysis buffer for luciferase assay (Promega, Madison, Wis.). Cellular debris was removed from lysed proteins by centrifugation at 16,000×g at 4° C. for 30 minutes. Luciferase activity was measured with a Centro LB 960 Luminometer (Berthold Technologies, Germany).

[2] = system: Jurkat T cells and human PBLs; assay: IL-2 secretion from activated T cells (ELISA); type: cell-based; conditions: for IC50: Jurkat T cells and human PBLs, PMA/A23187 stimulation, supernatants after 36 hours, ELISA, read-out: IC50 of inhibition of IL-2 secretion
Method: as §1
Jurkat T cells or human PBLs were stimulated in the same manner as described above with respect to T-cell stimulation and treatment with 4H3MC or HCA. At the indicated time points, the supernatants were collected, and the concentrations of IL-2 in the supernatants were measured using a Duo set Human IL-2 ELISA kit (R&D Systems).

PKCθ, ERK and p38 kinase = assay: Western blot of phospho-PKCθ, ERK and p38 in activated Jurkat T cells; type: cell-based, human
Method: as §1
Jurkat T cells were lysed by cold lysis buffer (1% Triton X-100, 150 mM NaCl, 20 mM Tris, pH 7.5, protease inhibitor and phosphatase inhibitor) for 1 hour, and then centrifuged at 4° C. at 16,000×g for 30 minutes. About 100 μg of the extract lysate was separated through 10% SDS-PAGE. Proteins were transferred into a nitrocellulose membrane by means of Trans-Blot SD semidry transfer cell (Bio-Rad, Hercules, Calif.). The membrane was blocked in 5% skim milk for 1 hour, washed, and then incubated with the indicated antibodies in 3% skim milk overnight. Excess primary antibody was removed by washing the membrane with TBST, and then the membrane was incubated with peroxidase-conjugated secondary antibody for 2 hours. After washing with TBST, bands were visualized by Western blotting detection reagent and then exposed to x-ray film.

Jurkat T cells = assay: Cell death assay (microscopy, 7-AAD/annexin V flow cytometry, Hoechst staining); type: cell-based, human; conditions: 16 hours
Method: Cell death of Jurkat T cells was examined using a double staining method with 7-AAD and annexin V-PE. Jurkat T cells (1×10^6) were indicated concentrations of 4H3MC for 16 hours, and then suspended in 200 μl of HBSS buffer comprising 7-AAD (1 μg/ml) and were incubated at 37° C. for 10 minutes. After 10 minutes, the cells were incubated with 200 μl of HBSS buffer comprising V-PE (20 μg/ml) and analyzed immediately on a BD FACS Canto™ II Flow Cytometer (BD Biosciences). All experiments were performed at least three times.
Jurkat T cells were treated with 10 μM of 4H3MC for 16 hours, and then pelleted onto a PLL-coated cover glass slide (18-mm diameter; Fisher Scientific, Pittsburgh, Pa.) using a cytospin centrifuge. The pelleted cells were fixed in 2% para-formaldehyde at room temperature for 10 minutes, and then washed three times with PBS. As control, cells were stained with TRITC-phalloidin for detecting actin. The slide was incubated for 2 minutes in PBS containing Hoechst dye (1:105) at room temperature, and then the cells were examined using an FV1000 confocal microscope.

[3] = system: atopic skin disease BALB/c mice; assay: DNCB/mite extract-induced atopic skin disease in mice; type: in vivo; conditions: 4H3MC 50 mg/kg orally every day for 4 weeks
Method: With reference to a previously reported publication, atopic skin disease was induced using DNCB and a mite extract. BALB/c mice were divided into four groups, and then the skin was peeled off by touching each earlobe five times with a surgical tape (Seo-il Chemistry, Hwa-sung, Korea). On day 0, 20 μl of DNCB (1%) was applied to each peeled earlobe, and on day 4, 20 μl of a mite extract (10 mg/mL) was applied. DNCB and the mite extract were alternately applied once a week for 4 weeks. From day 1, 4H3MC (50 mg/kg) was administered orally everyday for 4 weeks. Using a thickness meter (Kori Seiki MFG Co., Japan), the ear thickness was measured at 24 hours after application of DNCB or the mite extract. After 28 days, blood was sampled, and the serum portions were stored at […]. After blood sampling, the ear tissue was cut and used for histopathological analysis.

PKCθ = target: T1, PKCθ (Homo sapiens, UniProt Q04759); assay: PKCθ phosphorylation and accumulation at the immunological synapse (confocal imaging); type: cell-based; conditions: Jurkat T cells pretreated with 4H3MC 10 μM, conjugates with SEE-pulsed Raji B cells
T1 construct: endogenous in cells; host or cells: Jurkat T cells conjugated with SEE-pulsed Raji B cells
Method: Jurkat T cells were pretreated with 10 μM of 4H3MC for 1 hour, while Raji B cells were stained with 1 μM of CMFDA green tracker for 30 minutes. After washing twice with RPMI medium, Raji B cells were incubated with SEE (1 μg/ml) at 37° C. for 30 minutes. SEE-conjugated Raji B cells were incubated with 4H3MC-treated Jurkat T cells for 10 minutes to form an immunological synapse, and then placed on glass coverslips. The cells were fixed with 2% paraformaldehyde and washed with PBS. After washing, the cells were permeabilized with 0.1% TritonX-100 and incubated with primary antibodies (antibodies against CD3, LFA-1, t-PKCθ, p-PKCθ) overnight. On the next day, the cells were washed with PBS, and then incubated with secondary antibodies (cy3-conjugated goat anti-mouse IgG, Texas Red-conjugated goat anti-rabbit IgG antibodies) at room temperature for 1 hour. After washing, the cells were placed on a slide glass using Dako fluorescent mounting medium (Dako, Denmark), followed by drying. The dried slide samples were examined with an FV1000 confocal laser scanning microscope (Olympus), and CD3, LFA-1, t-PKCθ and p-PKCθ accumulation at the immunological synapse was observed and analyzed.

PKC = PKC activity measurement in Jurkat T cell lysate (ELISA-based kinase assay); type: biochemical, human; conditions: Jurkat T cell cytosol fraction, compound 0.01-50 μM, PMA 100 nM
Method: Jurkat T cells (1×10^6) were suspended in lysis buffer (1% Triton X-100, 150 mM NaCl, 20 mM Tris pH 7.5, protease inhibitor, phosphatase inhibitor), and then kept at 4° C. for 1 hour and centrifuged at 14,000×g for 30 minutes. Cell lysate was incubated with 4H3MC ([…]), HCA ([…]) or STSN (10 nM) at 4° C. for 30 minutes. PMA (100 nM) was added, and PKC activity was measured with a nonradioactive protein kinase assay based on ELISA. The assay was developed with tetramethylbenzidine substrate, and the color developed proportionally to PKC phosphotransferase activity. The intensity of the color was measured at 450 nm. The data were expressed as relative kinase activity.

[4] = Jurkat T cells pre-activated 30 minutes with anti-CD3/CD28 or PMA/A23187, then 4H3MC 10 μM
[5] = Jurkat T cells, 4H3MC 10 μM pretreatment 1 hour, anti-CD3/CD28 or PMA/A23187

T1 sequence (Q04759 whole entry): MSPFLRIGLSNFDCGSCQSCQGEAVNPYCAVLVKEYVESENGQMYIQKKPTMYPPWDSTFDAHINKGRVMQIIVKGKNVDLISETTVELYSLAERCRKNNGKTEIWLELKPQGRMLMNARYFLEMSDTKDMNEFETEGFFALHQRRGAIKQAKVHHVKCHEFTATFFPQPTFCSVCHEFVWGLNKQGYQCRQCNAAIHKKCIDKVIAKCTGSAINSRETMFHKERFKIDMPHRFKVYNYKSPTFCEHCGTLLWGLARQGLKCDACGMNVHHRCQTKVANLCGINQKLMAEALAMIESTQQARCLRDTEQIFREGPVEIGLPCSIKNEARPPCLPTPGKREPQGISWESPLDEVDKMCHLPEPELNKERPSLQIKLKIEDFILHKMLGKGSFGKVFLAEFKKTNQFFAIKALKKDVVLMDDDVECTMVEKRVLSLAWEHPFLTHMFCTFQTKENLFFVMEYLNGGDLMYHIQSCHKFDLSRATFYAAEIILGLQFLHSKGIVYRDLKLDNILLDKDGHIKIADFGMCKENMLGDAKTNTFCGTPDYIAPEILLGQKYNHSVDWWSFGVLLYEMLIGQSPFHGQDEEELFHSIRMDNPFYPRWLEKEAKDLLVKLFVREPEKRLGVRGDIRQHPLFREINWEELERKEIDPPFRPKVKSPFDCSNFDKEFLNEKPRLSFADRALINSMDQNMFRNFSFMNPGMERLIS

Compound	IL-2 expression (mRNA) ([1]; Jurkat T cells and human PBLs pretreated 1 hour with 4H3MC 0-250 μM, then PMA/A23187 or anti-CD3/CD28 for 6 hours)	concentration at which dramatic inhibition of IL-2 expression was seen ([1]; Jurkat T cells and human PBLs, pretreatment 1 hour, PMA/A23187 or anti-CD3/CD28)	IL2 mRNA expression, post-treatment [1, 4]	time-dependent IL-2 mRNA expression ([1]; Jurkat T cells, 4H3MC 10 μM pretreatment 1 hour, anti-CD3/CD28 or PMA/A23187 for various times)	luciferase activities of NF-κB, AP-1 and NFAT (AP-1, NF-κB and NFAT)	IC50 [2]	fold effectiveness versus HCA in inhibition of IL-2 in T cells ([2]; comparison of IC50 values of 4H3MC and HCA)	time-dependent IL-2 secretion ([2]; human PBLs, 4H3MC 10 μM pretreatment 1 hour, PMA/A23187)	phosphorylated forms of PKCθ, ERK and p38, post-treatment (PKCθ, ERK and p38 kinase; [4])	phosphorylation of ERK and p38 (PKCθ, ERK and p38 kinase; [5])	phosphorylation of PKCθ (PKCθ, ERK and p38 kinase; [5])	apoptosis or necrosis (Jurkat T cells; 10-100 μM)	apoptosis or necrosis by Hoechst staining (Jurkat T cells; effective concentration (10 μM))	necrosis (Jurkat T cells; high concentrations (250 μM))	ear symptoms (flushed and swollen) 28 days after induction [3]	ear thickness [3]	phosphorylation and accumulation of PKCθ at the IS (PKCθ)	PKC activity (PKC)
COc1cc(C=CC=O)ccc1O [4H3MC, 4-Hydroxy-3-methoxycinnamaldehyde]	significantly inhibited IL-2 expression in a concentration-dependent manner	2 to 10 µM	effectively reduced the expression of IL2 mRNA in pre-activated Jurkat T cells	inhibited IL-2 mRNA expression at the early time point (about 3 hours) after stimulation which lasted over 6 hours	considerably reduced PMA/A23187-induced luciferase activities of NF-κB, AP-1 and NFAT	~2.5 µM	~5 fold	significantly reduced	significantly reduced	dramatically reduced anti-CD3/CD28- and PMA/A23187-induced phosphorylation of ERK and p38	significantly blocked phosphorylation of PKCθ	did not induce apoptosis or necrosis	does not induce apoptosis or necrosis at its effective concentration	induced necrosis in some Jurkat T cells	such symptoms were alleviated	became significantly thinner from 8 days	significantly reduced the phosphorylation as well as accumulation of PKCθ at the IS	significantly inhibited PKC-specific activity with the lower effective concentration than HCA
O=C(O)C=Cc1ccc(O)cc1 [HCA, p-hydroxycinnamic acid, reference compound]	–	–	–	–	–	15 to 18 µM	–	–	–	–	–	–	–	–	–	–	–	inhibit PKC activity in vitro

— patent US20170252306A1, “Pharmaceutical Compositions for Preventing and Treating Th1 or Th2 mediated Immune Disease Comprising 4H3MC(4-Hydroxy-3-methoxycinnamaldehyde) as an Active Ingredient” (GWANGJU INSTITUTE OF SCIENCE AND TECHNOLOGY, priority 2016, published 2017)
